Test [1] has as its system profibrotic gene signatures in phLFs+TGFβ1. The test can be described thus: Microarray transcriptomics and UMAP regulation pattern clustering in phLFs. It is filed as cell-based, human. Conditions: phLFs+TGFβ1+example 84. On the procedure:
Total RNA was isolated PEQGold Total RNA Kit (PeqLab) according to the manufacturer's instructions including gDNA elimination. The Agilent 2100 Bioanalyzer was used to assess RNA quality and RNA with RIN>7 was used for microarray analysis. Total RNA (150 ng) was amplified using the WT PLUS Reagent Kit (Thermo Fisher Scientific Inc., Waltham, USA). Amplified cDNA was hybridized on Human ClariomS arrays (Thermo Fisher Scientific). Staining and scanning (GeneChip Scanner 3000 7G) was done according to manufacturer's instructions. Transcriptome Analysis Console (TAC; version 4.0.0.25; Thermo Fisher Scientific) was used for quality control and to obtain annotated normalized SST-RMA gene-level data. Statistical analyses were performed by utilizing the statistical programming environment R (R Development Core Team Ref1). Genewise testing for differential expression was done employing the paired limma t-test and Benjamini-Hochberg multiple testing correction (FDR<10%). To reduce background, gene sets were filtered using DABG p-values<0.05 in at least one sample per pair and in at least two of three pairs per analysis. […] Then, clusters of genes were extracted. Gene/protein interactions were visualized using the String Database (www.stringdb.org).

Test [2] concerns cell shape, microtubules and actin of phLFs. The test can be described thus: Fluorescence microscopy of cell morphology and cytoskeleton (α-Tubulin, phalloidin, calcein). The format is cell-based, human. The text has this: FIG. 14: Dose-response relationships of N23Ps, live imaging of ECM deposition and cell-morphology switch. (A) Structural formula for Tranilast and N23Ps (example 84 and example 85) indicating 2-butoxy-substitution at R1 and IC50 values. […] Cell nuclei in blue (HOECHST). Scale bar=500 μm. […] Cell nuclei were stained by Hoechst (blue). Scale bar=50 μm. (F) Confocal images of subconfluent phLFs+TGFβ1 stained for Hoechst (blue), calcein (green) and phalloidin (red) showing round cell morphologies after treatment with example 84 as well as extensive actin cytoskeletal rearrangements (red). […] Scale bar=500 μm. Data are presented as means t SEM. Differences between groups were evaluated with paired t-tests. * p<0.05. n=3 (three different patient phLFs).
FIG. 16: (A) Fluorescence wide-field microscopy images (10× objective in low magnification and resolution) of phLFs treated with 5 μM DMSO, 50 μM example 84 and 100 μM Tranilast, and stained for Hoechst (blue), α-Tubulin (green) and filamentous actin (red, Phalloidin). […] Scale bar=100 μm. (B) Fluorescence wide-field microscopy images (63× objective in high magnification and resolution) of phLFs treated with either 5 μM DMSO or 50 μM example 84, and stained for Hoechst (blue), a.-Tubulin (green) and filamentous actin (red, Phalloidin). […] Scale bar=[…]. iPSC=induced pluripotent stem cells. […] Scale bar=350 μm. […] Thus, the compounds of the present invention show similar effects like colchicine on microtubules (41). Therefore, the compounds of the present invention are also for use in the treatment of inflammatory diseases such as arthrolithiasis, familiar mediterranean fever and pericarditis amongst others by the inhibition of polymorphonuclear leukocyte and macrophage motility as well as intracellular vesicular transport mechanisms.
For standard immunofluorescence staining, 5000 phLFs were seeded into 96 well imaging plates with a flat bottom (Cat #353376, BD Biosciences). After incubation, cells were fixed with either 4% PFA for 30 min at 37° C. or 100% methanol for 2 min at −20° C. […]

For another test, the system named is CXCL8/IL-8. Kind of test: Human precision cut lung slices (PCLS) with fibrotic cocktail: IL-8 ELISA. The format is cell-based. The note with it: living human PCLS. The protocol: PCLS were prepared as described before (31, 32). Shortly, PCLS were prepared from tumor-free peri-tumor tissue. The lung tissue was inflated with 3% agarose solution and solidified at 4° C. Tissue blocks were cut in μm thick PCLS using a vibration microtome Hyrax V50 (Zeiss). PCLS were cultured in DMEM F-12 medium and treated with a profibrotic cocktail, as described before (31), or vehicle, as well as with small molecules or vehicles for 7 days. After culturing and treatments, supernatants were harvested. PCLS were […] washed in PBS and protein was extracted as previously described (33). Briefly, PCLS were pooled in an Eppendorf tube and lysed in 500 μl ice-cold RIPA buffer (50 mM Tris-CI pH 7.4, 150 mM NaCl, 1% NP40, 0.25% Na-deoxycholate) containing 1× Roche complete mini protease inhibitor cocktail (Roche, Cat. #11697498001). After an incubation of 2 hours rotating at 4° C., the lung slices were removed from the lysates and the protein content was measured.
Cells were scraped off the plastic dish directly into 200 μl ice-cold RIPA buffer containing 1× Roche complete mini protease inhibitor cocktail. […] CXCL/IL-8 concentrations were determined using Human IL-8/CXCL8 DuoSet ELISA (DY208-05) according to the manufacturer's protocol.
(In an ELISA, binding on a coated surface is turned into a signal by an enzyme label.)

Consider 1 compound from patent US20240294465A1, “NOVEL ANTI-FIBROTIC DRUGS” (HELMHOLTZ ZENTRUM MUNCHEN - DEUTSCHES FORSCHUNGSZENTRUM FUR …, priority 2021, published 2024).

Entries after “also recorded” stand apart in the source; their conditions may differ.

Consider `CCCCOc1ccccc1NC(=O)/C=C/c1ccc(OC)c(OC)c1` [Example 84, (E)-N-(2-butoxyphenyl)-3-(3,4-dimethoxyphenyl)acrylamide], for which, in test [1], the “gene-set enrichment analysis (collagen formation, extracellular matrix organization, smooth-muscle contraction)” value is “negative enrichment for profibrotic gene signatures”. Further, the cell morphology result in test [2] (b48: example 84 50 μM, Tranilast 100 μM) was “significant changes in cell-shape and eccentricity towards round cells; also recorded: cell-shape switch towards round cell morphologies”. In test [2] (example 84 50 μM), the “actin filaments (Phalloidin)” value is recorded as “without affecting actin filaments”. Also, the “microtubules (α-Tubulin staining)” value in test [2] (example 84 50 μM, Tranilast 100 μM) was “depolymerized, that is non-filamentous, microtubules”. For the same compound, in the test with CXCL8/IL-8, the “CXCL8/IL-8 (ELISA)” value is reported as “diminution of pro-fibrotic CXCL8/IL-8”.
